In PMC2697495 (The Journal of pharmacy and pharmacology, 2008):
Marks after values point to notes of the source that are not given here.

Tests used:
[1] = system: pooled human liver microsomes (pHLMs); assay: 5-HT glucuronidation by pooled human liver microsomes; type: biochemical; conditions: pHLM, 4 mM 5-HT, n=3
UGT1A6 (insect) = target: T1, UGT1A6 (insect) (Homo sapiens, UniProt P19224); assay: 5-HT glucuronidation by recombinant UGT1A6; type: biochemical; conditions: for 5-HT glucuronidation, % of the control activity (measured at 0 mM): UGT1A6 (insect), 4 mM 5-HT, n=3
T1 sequence (P19224 27-532): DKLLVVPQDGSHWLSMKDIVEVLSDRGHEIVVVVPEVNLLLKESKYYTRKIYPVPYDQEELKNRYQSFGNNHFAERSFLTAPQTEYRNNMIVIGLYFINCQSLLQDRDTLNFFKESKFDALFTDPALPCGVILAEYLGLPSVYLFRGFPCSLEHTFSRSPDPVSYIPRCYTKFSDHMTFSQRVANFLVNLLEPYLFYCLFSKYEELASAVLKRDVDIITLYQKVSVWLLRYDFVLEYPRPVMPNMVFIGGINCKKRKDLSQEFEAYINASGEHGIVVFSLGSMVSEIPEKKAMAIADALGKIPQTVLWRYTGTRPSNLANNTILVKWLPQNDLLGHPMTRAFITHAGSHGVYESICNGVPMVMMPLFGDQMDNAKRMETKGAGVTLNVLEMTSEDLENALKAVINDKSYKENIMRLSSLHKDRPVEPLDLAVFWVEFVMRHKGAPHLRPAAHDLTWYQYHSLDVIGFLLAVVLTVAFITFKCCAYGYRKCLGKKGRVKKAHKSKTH

[2] = system: pooled human liver microsomes (pHLMs); assay: Codeine glucuronidation by pHLMs; type: biochemical; conditions: for Codeine glucuronidation, % of the control activity (measured at 0 mM): pHLM, 1 mM codeine, n=3
UGT2B7 [3] = target: T2, UGT2B7 (Homo sapiens, UniProt P16662); assay: Codeine glucuronidation by recombinant UGT2B7; type: biochemical; conditions: 1 mM codeine, n=3
T2 sequence (P16662 24-529): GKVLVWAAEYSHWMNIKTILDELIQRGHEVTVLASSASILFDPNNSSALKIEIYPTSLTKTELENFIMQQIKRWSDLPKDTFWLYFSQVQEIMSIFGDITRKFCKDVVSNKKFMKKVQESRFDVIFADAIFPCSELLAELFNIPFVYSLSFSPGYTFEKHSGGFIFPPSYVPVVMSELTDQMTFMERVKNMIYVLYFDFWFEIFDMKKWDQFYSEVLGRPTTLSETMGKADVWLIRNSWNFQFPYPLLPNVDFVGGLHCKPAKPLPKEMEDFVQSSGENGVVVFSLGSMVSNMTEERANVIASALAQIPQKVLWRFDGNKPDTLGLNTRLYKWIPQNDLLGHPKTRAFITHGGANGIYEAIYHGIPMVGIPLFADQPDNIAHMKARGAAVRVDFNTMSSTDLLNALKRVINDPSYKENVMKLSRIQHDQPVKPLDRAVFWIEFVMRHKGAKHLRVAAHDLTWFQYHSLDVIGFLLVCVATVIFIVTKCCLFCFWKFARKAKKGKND

[4] = system: pooled human liver microsomes (pHLMs); assay: Salicylic acid; type: biochemical; conditions: pHLM, 5 mM salicylic acid, phenol glucuronide, n=3
UGT1A3 [5] = target: T3, UGT1A3 (Homo sapiens, UniProt P35503); assay: Estradiol-3 glucuronidation by recombinant UGT1A3; type: biochemical; conditions: for Estradiol-3 glucuronidation, % of the control activity (measured at 0 mM): UGT1A3, 100 μM estradiol, n=3
T3 sequence (P35503 29-534): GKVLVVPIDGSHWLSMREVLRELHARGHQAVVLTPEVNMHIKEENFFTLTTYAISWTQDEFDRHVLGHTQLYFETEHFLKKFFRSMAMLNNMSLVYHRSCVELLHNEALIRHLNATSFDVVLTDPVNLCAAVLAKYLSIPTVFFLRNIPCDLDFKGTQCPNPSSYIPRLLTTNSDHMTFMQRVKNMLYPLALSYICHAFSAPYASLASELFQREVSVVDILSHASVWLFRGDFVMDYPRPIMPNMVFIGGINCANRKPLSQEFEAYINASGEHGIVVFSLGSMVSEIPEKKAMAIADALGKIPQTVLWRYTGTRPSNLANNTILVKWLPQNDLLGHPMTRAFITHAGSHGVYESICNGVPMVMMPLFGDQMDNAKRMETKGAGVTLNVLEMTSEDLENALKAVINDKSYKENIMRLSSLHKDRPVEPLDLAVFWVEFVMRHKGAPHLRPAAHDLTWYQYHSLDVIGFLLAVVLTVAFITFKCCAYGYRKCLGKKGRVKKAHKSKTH

UGT1A3 [6] = target: T3, UGT1A3; assay: Estradiol-17 glucuronidation by recombinant UGT1A3; type: biochemical; conditions: 100 μM estradiol, n=3
UGT2B7 [7] = target: T2, UGT2B7; assay: Estradiol-17 glucuronidation by recombinant UGT2B7; type: biochemical; conditions: for Estradiol-17 glucuronidation, % of the control activity (measured at 0 mM): UGT2B7, 100 μM estradiol, n=3
[8] = system: pooled human liver microsomes (pHLMs); assay: e-4-hydroxy-tamoxifen glucuronidation by pHLMs; type: biochemical; conditions: 20 mM saccharolactone, pH-adjusted to 7.5
[9] = system: endogenous β-glucuronidase, insect cell expressed UGT2B7; conditions: recombinant UGT2B7 preparation; 10 mM saccharolactone
[10] = system: endogenous β-glucuronidase, insect cell expressed UGT1A1; conditions: recombinant UGT1A1 preparation; 10 mM saccharolactone
HLMs [11] = conditions: 5 mM saccharolactone, ref Alkharfy & Frye 2001; cited from earlier work
HLMs [12] = conditions: 5 mM saccharolactone, ref Kemp et al 2002; cited from earlier work
rats = conditions: in vivo in rats; ref Brunelle and Verbeeck (1997); cited from earlier work

## O=C(O)[C@@H](O)[C@H]1OC(=O)[C@H](O)[C@H]1O [saccharolactone, D-saccharic acid 1,4-lactone]
[1]; 1 mM saccharolactone (pH-adjusted)
  5-HT glucuronidation, % of the control activity (measured at 0 mM): 104±8%
[1]; 2 mM saccharolactone (pH-adjusted)
  5-HT glucuronidation, % of the control activity (measured at 0 mM): 93±5%
[1]; 5 mM saccharolactone (pH-adjusted)
  5-HT glucuronidation, % of the control activity (measured at 0 mM): 86±4 ^a %
[1]; 10 mM saccharolactone (pH-adjusted)
  5-HT glucuronidation, % of the control activity (measured at 0 mM): 87±4 ^a %
[1]; 20 mM saccharolactone (pH-adjusted)
  5-HT glucuronidation, % of the control activity (measured at 0 mM): 63±5 ^a %
UGT1A6 (insect); 5 mM saccharolactone
  5-HT glucuronidation, % of the control activity (measured at 0 mM): 88±7%
UGT1A6 (insect); 20 mM saccharolactone
  5-HT glucuronidation, % of the control activity (measured at 0 mM): 96±0%
UGT1A6 (insect); UGT1A6 expressed in insect cells, saccharolactone up to 20 mM
  effect on 5-hydroxytryptamine glucuronidation: no effect
[2]; 1 mM saccharolactone
  Codeine glucuronidation, % of the control activity (measured at 0 mM): 98±7%
[2]; 2 mM saccharolactone
  Codeine glucuronidation, % of the control activity (measured at 0 mM): 97±4%
[2]; 5 mM saccharolactone
  Codeine glucuronidation, % of the control activity (measured at 0 mM): 91±2 ^a %
[2]; 10 mM saccharolactone
  Codeine glucuronidation, % of the control activity (measured at 0 mM): 95±5%
[2]; 20 mM saccharolactone
  Codeine glucuronidation, % of the control activity (measured at 0 mM): 88±8%
[2]; pHLMs, 5 mM saccharolactone, p<0.05
  inhibition of codeine glucuronidation: 9%
UGT2B7 [3]; 5 mM saccharolactone
  Codeine glucuronidation, % of the control activity (measured at 0 mM): 90±7%
UGT2B7 [3]; 20 mM saccharolactone
  Codeine glucuronidation, % of the control activity (measured at 0 mM): 90±3%
[4]; 1 mM saccharolactone
  Salicylic Acid glucuronidation, % of the control activity (measured at 0 mM): 101±5%
[4]; 2 mM saccharolactone
  Salicylic Acid glucuronidation, % of the control activity (measured at 0 mM): 111±5%
[4]; 5 mM saccharolactone
  Salicylic Acid glucuronidation, % of the control activity (measured at 0 mM): 83±3 ^a %
[4]; 10 mM saccharolactone
  Salicylic Acid glucuronidation, % of the control activity (measured at 0 mM): 90±1%
[4]; 20 mM saccharolactone
  Salicylic Acid glucuronidation, % of the control activity (measured at 0 mM): 85±9 ^a %
UGT1A3 [5]; 5 mM saccharolactone
  Estradiol-3 glucuronidation, % of the control activity (measured at 0 mM): 92±18%
UGT1A3 [5]; 20 mM saccharolactone
  Estradiol-3 glucuronidation, % of the control activity (measured at 0 mM): 97±10%
UGT1A3 [5]; recombinant UGT1A3
  effect on estradiol glucuronidation: no effect
UGT1A3 [6]; 5 mM saccharolactone
  Estradiol-17 glucuronidation, % of the control activity (measured at 0 mM): 90±14%
UGT1A3 [6]; 20 mM saccharolactone
  Estradiol-17 glucuronidation, % of the control activity (measured at 0 mM): 98±10%
UGT2B7 [7]; 5 mM saccharolactone
  Estradiol-17 glucuronidation, % of the control activity (measured at 0 mM): 97±2%
UGT2B7 [7]; 20 mM saccharolactone
  Estradiol-17 glucuronidation, % of the control activity (measured at 0 mM): 87±7 ^a %
UGT2B7 [7]; recombinant UGT2B7, 20 mM saccharolactone, p<0.05
  reduction in estradiol-17 glucuronidation activity: 13%
[8]
  decrease in e-4-hydroxy-tamoxifen glucuronidation activity: 17%
[9]
  inhibition of estradiol glucuronide hydrolysis: effective in the inhibition of hydrolysis
[10]
  inhibition of estradiol glucuronide hydrolysis: effective in the inhibition of hydrolysis
HLMs [11]
  decrease of acetaminophen glucuronidation: 45%
HLMs [12]
  effect on raloxifene glucuronidation: inhibited
rats
  effect on partial clearance of diflunisal acyl glucuronide: increase
  effect on partial clearance of diflunisal phenol glucuronide: little effect
